# Species: Rattus norvegicus
# Experiment: Open TG-GATES - Regimen: Single
# Assay type: toxicity, organism-based, Sprague-Dawley
# Parameters: regimen Single, gender Male, age 6 weeks
# Settings: in vivo, po, 60 mg/kg, route gavage, dose level Low; for APTT / Bas / Eos / Fbg / Hb / Ht / Lym / MCH / MCHC / MCV / Mono / Neu / PT / Plat / RBC / Ret / WBC: tissue Blood; for KIDNEY_L / KIDNEY_R / KIDNEY_TOTAL: tissue Kidney; for LIVER: tissue Liver; for A/G / ALP / ALT / AST / BUN / CRE / Ca / Cl / DBIL / GLC / IP / K / LDH / Na / PL / RALB / TBIL / TC / TG / TP / gamma-GTP: tissue Plasma
smiles,measurement,setting,value
CCOC(=O)[C@H](CCc1ccccc1)N[C@@H](C)C(=O)N1CCC[C@H]1C(=O)O,TERMINAL_BW,3 h,218.9 g
same,APTT,3 h,15.9 s
same,Bas,3 h,0%
same,Eos,3 h,1%
same,Fbg,3 h,216 mg/dL
same,Hb,3 h,13.2 g/dL
same,Ht,3 h,40.3%
same,Lym,3 h,75.6%
same,MCH,3 h,21.3 pg
same,MCHC,3 h,32.8%
same,MCV,3 h,64.7 fL
same,Mono,3 h,9.4%
same,Neu,3 h,14%
same,PT,3 h,12 s
same,Plat,3 h,113.1 x10_4/uL
same,RBC,3 h,622.2 x10_4/ul
same,Ret,3 h,8.4%
same,WBC,3 h,113.3 x10_2/uL
same,KIDNEY_L,3 h,0.9 g
same,KIDNEY_R,3 h,0.9 g
same,KIDNEY_TOTAL,3 h,1.9 g
same,LIVER,3 h,10.3 g
same,A/G,3 h,1.9
same,ALP,3 h,851.2 IU/L
same,ALT,3 h,38.6 IU/L
same,AST,3 h,65.6 IU/L
same,BUN,3 h,18.2 mg/dL
same,CRE,3 h,0.5 mg/dL
same,Ca,3 h,11 mg/dL
same,Cl,3 h,106 meq/L
same,DBIL,3 h,0.018 mg/dL
same,GLC,3 h,203.8 mg/dL
same,IP,3 h,9.8 mg/dL
same,K,3 h,5.3 meq/L
same,LDH,3 h,85 IU/L
same,Na,3 h,138.8 meq/L
same,PL,3 h,142.2 mg/dL
same,RALB,3 h,3.4 g/dL
same,TBIL,3 h,0.3 mg/dL
same,TC,3 h,84 mg/dL
same,TG,3 h,52.2 mg/dL
same,TP,3 h,5.3 g/dL
same,gamma-GTP,3 h,1.8 IU/L
same,TERMINAL_BW,6 h,221.6 g
same,APTT,6 h,15.7 s
same,Bas,6 h,0%
same,Eos,6 h,1%
same,Fbg,6 h,200 mg/dL
same,Hb,6 h,13.1 g/dL
same,Ht,6 h,39.2%
same,Lym,6 h,79.8%
same,MCH,6 h,21.7 pg
same,MCHC,6 h,33.3%
same,MCV,6 h,65.2 fL
same,Mono,6 h,5.2%
same,Neu,6 h,14.6%
same,PT,6 h,12 s
same,Plat,6 h,110.6 x10_4/uL
same,RBC,6 h,602.6 x10_4/ul
same,Ret,6 h,9.2%
same,WBC,6 h,122.1 x10_2/uL
same,KIDNEY_L,6 h,1 g
same,KIDNEY_R,6 h,1 g
same,KIDNEY_TOTAL,6 h,2 g
same,LIVER,6 h,9.9 g
same,A/G,6 h,2.2
same,ALP,6 h,728.2 IU/L
same,ALT,6 h,36.2 IU/L
same,AST,6 h,60.4 IU/L
same,BUN,6 h,22 mg/dL
same,CRE,6 h,0.5 mg/dL
same,Ca,6 h,11.1 mg/dL
same,Cl,6 h,104.8 meq/L
same,DBIL,6 h,0.054 mg/dL
same,GLC,6 h,196 mg/dL
same,IP,6 h,10.9 mg/dL
same,K,6 h,4.9 meq/L
same,LDH,6 h,85.2 IU/L
same,Na,6 h,139.4 meq/L
same,PL,6 h,136 mg/dL
same,RALB,6 h,3.6 g/dL
same,TBIL,6 h,0.5 mg/dL
same,TC,6 h,78.2 mg/dL
same,TG,6 h,44.4 mg/dL
same,TP,6 h,5.3 g/dL
same,gamma-GTP,6 h,1.4 IU/L
same,TERMINAL_BW,9 h,216 g
same,APTT,9 h,16.1 s
same,Bas,9 h,0%
same,Eos,9 h,1.2%
same,Fbg,9 h,195 mg/dL
same,Hb,9 h,12.7 g/dL
same,Ht,9 h,39.1%
same,Lym,9 h,77%
same,MCH,9 h,21.6 pg
same,MCHC,9 h,32.6%
same,MCV,9 h,66.3 fL
same,Mono,9 h,4.4%
same,Neu,9 h,17%
same,PT,9 h,11.7 s
same,Plat,9 h,111.5 x10_4/uL
same,RBC,9 h,590 x10_4/ul
same,Ret,9 h,8.6%
same,WBC,9 h,87.4 x10_2/uL
same,KIDNEY_L,9 h,1 g
same,KIDNEY_R,9 h,1 g
same,KIDNEY_TOTAL,9 h,2 g
same,LIVER,9 h,9.2 g
same,A/G,9 h,1.9
same,ALP,9 h,839.6 IU/L
same,ALT,9 h,33.2 IU/L
same,AST,9 h,69 IU/L
same,BUN,9 h,20.2 mg/dL
same,CRE,9 h,0.4 mg/dL
same,Ca,9 h,10.6 mg/dL
same,Cl,9 h,107 meq/L
same,DBIL,9 h,0.02 mg/dL
same,GLC,9 h,193.4 mg/dL
same,IP,9 h,11 mg/dL
same,K,9 h,5.1 meq/L
same,LDH,9 h,89.4 IU/L
same,Na,9 h,138.4 meq/L
same,PL,9 h,122.2 mg/dL
same,RALB,9 h,3.5 g/dL
same,TBIL,9 h,0.4 mg/dL
same,TC,9 h,66.8 mg/dL
same,TG,9 h,57 mg/dL
same,TP,9 h,5.3 g/dL
same,gamma-GTP,9 h,1.6 IU/L
same,TERMINAL_BW,24 h,228.5 g
same,APTT,24 h,16.3 s
same,Bas,24 h,0%
same,Eos,24 h,1.4%
same,Fbg,24 h,220 mg/dL
same,Hb,24 h,12.9 g/dL
same,Ht,24 h,39.1%
same,Lym,24 h,79.6%
same,MCH,24 h,21.5 pg
same,MCHC,24 h,33.2%
same,MCV,24 h,65 fL
same,Mono,24 h,5.4%
same,Neu,24 h,14%
same,PT,24 h,11 s
same,Plat,24 h,114.8 x10_4/uL
same,RBC,24 h,602.4 x10_4/ul
same,Ret,24 h,8.9%
same,WBC,24 h,88.3 x10_2/uL
same,KIDNEY_L,24 h,1 g
same,KIDNEY_R,24 h,1 g
same,KIDNEY_TOTAL,24 h,2.1 g
same,LIVER,24 h,11.3 g
same,A/G,24 h,2.1
same,ALP,24 h,986.4 IU/L
same,ALT,24 h,39.2 IU/L
same,AST,24 h,61.4 IU/L
same,BUN,24 h,16.8 mg/dL
same,CRE,24 h,0.5 mg/dL
same,Ca,24 h,11.1 mg/dL
same,Cl,24 h,104.6 meq/L
same,DBIL,24 h,0.006 mg/dL
same,GLC,24 h,202.4 mg/dL
same,IP,24 h,8.6 mg/dL
same,K,24 h,5.4 meq/L
same,LDH,24 h,110.4 IU/L
same,Na,24 h,138.6 meq/L
same,PL,24 h,157.2 mg/dL
same,RALB,24 h,3.9 g/dL
same,TBIL,24 h,0.4 mg/dL
same,TC,24 h,89.4 mg/dL
same,TG,24 h,94.6 mg/dL
same,TP,24 h,5.8 g/dL
same,gamma-GTP,24 h,1.8 IU/L
